# Assay results taken from ChEMBL document CHEMBL3286379, “Design and synthesis of pyrimidine molecules endowed with thiazolidin-4-one as new anticancer agents” (Eur J Med Chem, 2014).
# Experiments:
# Type in all cases: functional
# [1] = Growth inhibition of human MOLT4 cells after 48 hrs by sulforhodamine B assay; details: MOLT-4, 48 h
# K562 = experiment: Growth inhibition of human K562 cells after 48 hrs by sulforhodamine B assay; details: K562, 48 h
# [2] = Growth inhibition of human RXF393 cells after 48 hrs by sulforhodamine B assay; details: RXF 393, 48 h
# HL-60(TB) = experiment: Growth inhibition of human HL-60(TB) cells after 48 hrs by sulforhodamine B assay; details: HL-60, 48 h
# [3] = Growth inhibition of human HOP92 cells after 48 hrs by sulforhodamine B assay; details: HOP-92, 48 h
# U-251 = experiment: Growth inhibition of human U251 cells after 48 hrs by sulforhodamine B assay; details: U-251, 48 h
# [4] = Growth inhibition of human OVCAR4 cells after 48 hrs by sulforhodamine B assay; details: OVCAR-4, 48 h
# RPMI-8226 = experiment: Growth inhibition of human RPMI8226 cells after 48 hrs by sulforhodamine B assay; details: RPMI-8226, 48 h
# [5] = Growth inhibition of human UACC62 cells after 48 hrs by sulforhodamine B assay; details: UACC-62, 48 h
# T47D = experiment: Growth inhibition of human T47D cells after 48 hrs by sulforhodamine B assay
# [6] = Growth inhibition of human UO31 cells after 48 hrs by sulforhodamine B assay; details: UO-31, 48 h
# MDA-MB-435 = experiment: Growth inhibition of human MDA-MB-435 cells after 48 hrs by sulforhodamine B assay; details: MDA-MB-435, 48 h
# COLO 205 = experiment: Growth inhibition of human COLO205 cells after 48 hrs by sulforhodamine B assay; details: COLO 205, 48 h
# [7] = Growth inhibition of human OVCAR8 cells after 48 hrs by sulforhodamine B assay; details: OVCAR-8, 48 h
# [8] = Growth inhibition of human Hs 578T cells after 48 hrs by sulforhodamine B assay
# [9] = Growth inhibition of human HCC2998 cells after 48 hrs by sulforhodamine B assay; details: HCC 2998, 48 h
# DU-145 = experiment: Growth inhibition of human DU145 cells after 48 hrs by sulforhodamine B assay; details: DU-145, 48 h
# MDA-MB-231 = experiment: Growth inhibition of human MDA-MB-231 cells after 48 hrs by sulforhodamine B assay; details: MDA-MB-231, 48 h
# [10] = Growth inhibition of human UACC257 cells after 48 hrs by sulforhodamine B assay; details: UACC-257, 48 h
# SK-OV-3 = experiment: Growth inhibition of human SKOV3 cells after 48 hrs by sulforhodamine B assay; details: SK-OV-3, 48 h
# [11] = read-out: LC50 (the source's name)
# [12] = read-out: pLC50 (the source's name) (converted)
structure (smiles),measurement,setting,value
Nc1nc(-c2ccccc2Cl)cc(-c2ccc(Cl)cc2Cl)n1,GI50,[1]; read-out: GI50,4.82 µM
same,CC50,[1]; [11],> 100 µM
same,TGI,[1]; read-out: TGI,> 100 µM
same,GI50,[1]; read-out: pGI50 (converted),4.79 µM
same,CC50,[1]; [12],> 100 µM
same,TGI,[1]; read-out: pTGI,> 100 µM
same,GI50,K562; read-out: GI50,3.97 µM
same,CC50,K562; [11],> 100 µM
same,TGI,K562; read-out: TGI,> 100 µM
same,GI50,K562; read-out: pGI50 (converted),3.98 µM
same,CC50,K562; [12],> 100 µM
same,TGI,K562; read-out: pTGI,> 100 µM
same,GI50,[2]; read-out: GI50,2.67 µM
same,CC50,[2]; [11],> 100 µM
same,TGI,[2]; read-out: TGI,10.7 µM
same,GI50,[2]; read-out: pGI50 (converted),2.69 µM
same,CC50,[2]; [12],> 100 µM
same,TGI,[2]; read-out: pTGI (converted),10.7 µM
same,GI50,HL-60(TB); read-out: GI50,3.14 µM
same,CC50,HL-60(TB); [11],> 100 µM
same,TGI,HL-60(TB); read-out: TGI,17.3 µM
same,GI50,HL-60(TB); read-out: pGI50 (converted),3.16 µM
same,CC50,HL-60(TB); [12],> 100 µM
same,TGI,HL-60(TB); read-out: pTGI (converted),17.4 µM
same,GI50,[3]; read-out: GI50,0.527 µM
same,CC50,[3]; [11],> 100 µM
same,TGI,[3]; read-out: TGI,7.62 µM
same,GI50,[3]; read-out: pGI50 (converted),0.525 µM
same,CC50,[3]; [12],> 100 µM
same,TGI,[3]; read-out: pTGI (converted),7.59 µM
same,GI50,U-251; read-out: GI50,11.1 µM
same,CC50,U-251; [11],> 100 µM
same,TGI,U-251; read-out: TGI,> 100 µM
same,GI50,U-251; read-out: pGI50 (converted),11.2 µM
same,CC50,U-251; [12],> 100 µM
same,TGI,U-251; read-out: pTGI,> 100 µM
same,GI50,[4],12 µM
same,CC50,[4]; [11],> 100 µM
same,CC50,[4]; [12],> 100 µM
same,TGI,[4]; read-out: pTGI (converted),89.1 µM
same,GI50,RPMI-8226; read-out: GI50,3.1 µM
same,CC50,RPMI-8226; [11],> 100 µM
same,TGI,RPMI-8226; read-out: TGI,17.6 µM
same,GI50,RPMI-8226; read-out: pGI50 (converted),3.09 µM
same,CC50,RPMI-8226; [12],> 100 µM
same,TGI,RPMI-8226; read-out: pTGI (converted),17.4 µM
same,GI50,[5]; read-out: GI50,5.93 µM
same,CC50,[5]; [11],> 100 µM
same,TGI,[5]; read-out: TGI,44.2 µM
same,GI50,[5]; read-out: pGI50 (converted),5.89 µM
same,CC50,[5]; [12],> 100 µM
same,TGI,[5]; read-out: pTGI (converted),44.7 µM
same,GI50,T47D; read-out: GI50,6.58 µM
same,CC50,T47D; [11],> 100 µM
same,TGI,T47D; read-out: TGI,> 100 µM
same,GI50,T47D; read-out: pGI50 (converted),6.61 µM
same,CC50,T47D; [12],> 100 µM
same,TGI,T47D; read-out: pTGI,> 100 µM
same,GI50,[6]; read-out: GI50,13.5 µM
same,CC50,[6]; [11],> 100 µM
same,TGI,[6]; read-out: TGI,> 100 µM
same,GI50,[6]; read-out: pGI50 (converted),13.5 µM
same,CC50,[6]; [12],> 100 µM
same,TGI,[6]; read-out: pTGI,> 100 µM
same,GI50,MDA-MB-435; read-out: GI50,1.97 µM
same,CC50,MDA-MB-435; [11],> 100 µM
same,TGI,MDA-MB-435; read-out: TGI,4.93 µM
same,GI50,MDA-MB-435; read-out: pGI50 (converted),1.95 µM
same,CC50,MDA-MB-435; [12],> 100 µM
same,TGI,MDA-MB-435; read-out: pTGI (converted),4.9 µM
same,GI50,COLO 205; read-out: GI50,3.52 µM
same,CC50,COLO 205; [11],53 µM
same,TGI,COLO 205; read-out: TGI,15.5 µM
same,GI50,COLO 205; read-out: pGI50 (converted),3.55 µM
same,CC50,COLO 205; [12],52.5 µM
same,TGI,COLO 205; read-out: pTGI (converted),15.5 µM
same,GI50,[7]; read-out: GI50,6.87 µM
same,CC50,[7]; [11],> 100 µM
same,TGI,[7]; read-out: TGI,> 100 µM
same,GI50,[7]; read-out: pGI50 (converted),6.92 µM
same,CC50,[7]; [12],> 100 µM
same,TGI,[7]; read-out: pTGI,> 100 µM
same,GI50,[8]; read-out: GI50,6.04 µM
same,CC50,[8]; [11],> 100 µM
same,TGI,[8]; read-out: TGI,60.7 µM
same,GI50,[8]; read-out: pGI50 (converted),6.03 µM
same,CC50,[8]; [12],> 100 µM
same,TGI,[8]; read-out: pTGI (converted),60.3 µM
same,GI50,[9]; read-out: GI50,7.19 µM
same,CC50,[9]; [11],> 100 µM
same,TGI,[9]; read-out: TGI,44 µM
same,GI50,[9]; read-out: pGI50 (converted),7.24 µM
same,CC50,[9]; [12],> 100 µM
same,TGI,[9]; read-out: pTGI,43.7 µM
same,GI50,DU-145; read-out: GI50,5.33 µM
same,CC50,DU-145; [11],> 100 µM
same,TGI,DU-145; read-out: TGI,70.1 µM
same,GI50,DU-145; read-out: pGI50 (converted),5.37 µM
same,CC50,DU-145; [12],> 100 µM
same,TGI,DU-145; read-out: pTGI (converted),70.8 µM
same,GI50,MDA-MB-231; read-out: GI50,9.3 µM
same,CC50,MDA-MB-231; [11],> 100 µM
same,TGI,MDA-MB-231; read-out: TGI,> 100 µM
same,GI50,MDA-MB-231; read-out: pGI50 (converted),9.33 µM
same,CC50,MDA-MB-231; [12],> 100 µM
same,TGI,MDA-MB-231; read-out: pTGI,> 100 µM
same,GI50,[10]; read-out: GI50,11.9 µM
same,CC50,[10]; [11],> 100 µM
same,TGI,[10]; read-out: TGI,55.2 µM
same,GI50,[10]; read-out: pGI50 (converted),11.7 µM
same,CC50,[10]; [12],> 100 µM
same,TGI,[10]; read-out: pTGI (converted),55 µM
same,GI50,SK-OV-3; read-out: GI50,10.1 µM
same,CC50,SK-OV-3; [11],> 100 µM
same,TGI,SK-OV-3; read-out: TGI,62.3 µM
same,GI50,SK-OV-3; read-out: pGI50 (converted),10 µM
same,CC50,SK-OV-3; [12],> 100 µM
same,TGI,SK-OV-3; read-out: pTGI (converted),61.7 µM
